# Measurements as given in patent US20220304950A1, “[…] THE TREATMENT OF PATIENTS WITH MAJOR DEPRESSIVE DISORDER, INCLUDING SUICIDALITY” (JANSSEN PHARMACEUTICALS, INC., priority 2019, published 2022).
# Test system: adult patients with MDD assessed to be at imminent risk for suicide
# Assay: Adverse events (TEAEs, SAEs), Study 1 (Example 4)
# Method: This is a randomized, double-blind, placebo-controlled, multicenter study to evaluate the efficacy of intranasal esketamine 84 mg compared with intranasal placebo in addition to comprehensive standard of care in reducing the symptoms of MDD, including suicidal ideation, in adult male and female patients who were assessed to be at imminent risk for suicide.
# The study consisted of a screening evaluation performed within 48 hours prior to the Day 1 intranasal dose, immediately followed by a 25-day double-blind treatment phase (Day 1 to 25), and a 65-day follow-up phase (Day 26 to Day 90). The total study duration for each subject was approximately 13 weeks.
# The study consisted of a screening evaluation performed within 24 to 48 hours prior to the Day 1 dose, immediately followed by a 25-day double-blind treatment phase (Day 1 to 25) with twice-weekly dosing sessions, and a 9-week follow up phase (Day 26 to Day 90). All participants received comprehensive SOC, including in-patient psychiatric hospitalization and the initiation or optimization of standard antidepressant medication (determined by the treating physician based on clinical judgment and practice guidelines).
# [1] = Esk 84 mg + SOC, double-blind phase
# [2] = Esk 84 mg + SOC, double-blind phase, listed as ESK
# [3] = Esk 84 mg + SOC, double-blind phase, listed as Esk
# [4] = Esk 84 mg + SOC, follow-up phase
smiles,measurement,setting,value
"CN[C@]1(c2ccccc2Cl)CCCCC1=O [esketamine, (S)-2-(2-chlorophenyl)-2-(methylamino)cyclohexanone]","SAEs: depression-related events, number","ESK+SOC, follow-up phase",3
same,"SAEs: suicidal ideation-related events, number","ESK+SOC, follow-up phase",7
same,"Serious TEAE Aggression, subjects n",[1],0
same,"Serious TEAE Depression suicidal, subjects %",[1],(1.8%)
same,"Serious TEAE Depression, subjects %",[1],(0.9%)
same,"Serious TEAE Depression, subjects n",[1],1
same,"Serious TEAE Diabetic ketoacidosis, subjects %",[1],(0.9%)
same,"Serious TEAE Diabetic ketoacidosis, subjects n",[1],1
same,"Serious TEAE Hepatobiliary disorders, subjects n",[1],0
same,"Serious TEAE Hypertransaminasaemia, subjects n",[1],0
same,"Serious TEAE Metabolism and nutrition disorders, subjects %",[1],(0.9%)
same,"Serious TEAE Metabolism and nutrition disorders, subjects n",[1],1
same,"Serious TEAE Psychiatric disorders, subjects n",[1],3
same,"Serious TEAE Suicidal ideation, subjects n",[1],0
same,"Serious TEAE Suicide attempt, subjects %",[1],(0.9%)
same,"Serious TEAE Suicide attempt, subjects n",[1],1
same,"Subjects with 1 or more TEAEs, %",[1],88.5%
same,"Subjects with related TEAEs, %",[1],(79.6%)
same,"Subjects with related severe TEAEs, %",[1],(6.2%)
same,"Subjects with serious TEAEs, %",[1],3.5%
same,"TEAE Anxiety, subjects %",[1],(5.3%)
same,"TEAE Anxiety, subjects n",[1],6
same,"TEAE Blood pressure increased, subjects %",[1],(16.8%)
same,"TEAE Blood pressure increased, subjects n",[1],19
same,"TEAE Constipation, subjects %",[1],(13.3%)
same,"TEAE Constipation, subjects n",[1],15
same,"TEAE Dissociation, subjects %",[1],29.2%
same,"TEAE Dissociation, subjects n",[1],33
same,"TEAE Dizziness postural, subjects %",[1],(5.3%)
same,"TEAE Dizziness postural, subjects n",[1],6
same,"TEAE Dizziness, subjects %",[1],35.4%
same,"TEAE Dizziness, subjects n",[1],40
same,"TEAE Dysgeusia, subjects n",[1],16
same,"TEAE Ear and labyrinth disorders, subjects %",[1],(8.0%)
same,"TEAE Ear and labyrinth disorders, subjects n",[1],9
same,"TEAE Eye disorders, subjects %",[1],(11.5%)
same,"TEAE Eye disorders, subjects n",[1],13
same,"TEAE Gastrointestinal disorders, subjects %",[1],(38.1%)
same,"TEAE Gastrointestinal disorders, subjects n",[1],43
same,"TEAE Headache, subjects n",[1],21
same,"TEAE Hypoaesthesia, subjects %",[1],(7.1%)
same,"TEAE Hypoaesthesia, subjects n",[1],8
same,"TEAE Insomnia, subjects %",[1],(6.2%)
same,"TEAE Insomnia, subjects n",[1],7
same,"TEAE Investigations, subjects %",[1],(24.8%)
same,"TEAE Investigations, subjects n",[1],28
same,"TEAE Nausea, subjects %",[1],20.4%
same,"TEAE Nausea, subjects n",[1],23
same,"TEAE Nervous system disorders, subjects %",[1],(68.1%)
same,"TEAE Nervous system disorders, subjects n",[1],77
same,"TEAE Psychiatric disorders, subjects %",[1],(45.1%)
same,"TEAE Psychiatric disorders, subjects n",[1],51
same,"TEAE Sedation, subjects %",[1],(6.2%)
same,"TEAE Sedation, subjects n",[1],7
same,"TEAE Somnolence, subjects n",[1],21
same,"TEAE Vertigo, subjects %",[1],(6.2%)
same,"TEAE Vertigo, subjects n",[1],7
same,"TEAE Vision blurred, subjects %",[1],(8.8%)
same,"TEAE Vision blurred, subjects n",[1],10
same,"TEAE Vomiting, subjects %",[1],(7.1%)
same,"TEAE Vomiting, subjects n",[1],8
same,"TEAE dysgeusia, subjects %",[1],(14.2%)
same,"TEAE headache, subjects %",[1],(18.6%)
same,"TEAE leading to discontinuation: Aggression, subjects n",[1],0
same,"TEAE leading to discontinuation: Atrioventricular block first degree, subjects n",[1],0
same,"TEAE leading to discontinuation: Blood pressure diastolic increased, subjects n",[1],0
same,"TEAE leading to discontinuation: Blood pressure increased, subjects %",[1],0.9%
same,"TEAE leading to discontinuation: Blood pressure increased, subjects n",[1],1
same,"TEAE leading to discontinuation: Cardiac disorders, subjects n",[1],0
same,"TEAE leading to discontinuation: Confusional state, subjects %",[1],0.9%
same,"TEAE leading to discontinuation: Confusional state, subjects n",[1],1
same,"TEAE leading to discontinuation: Dissociation, subjects %",[1],0.9%
same,"TEAE leading to discontinuation: Dissociation, subjects n",[1],1
same,"TEAE leading to discontinuation: Dizziness, subjects %",[1],0.9%
same,"TEAE leading to discontinuation: Dizziness, subjects n",[1],1
same,"TEAE leading to discontinuation: Hallucination, visual, subjects %",[1],0.9%
same,"TEAE leading to discontinuation: Hallucination, visual, subjects n",[1],1
same,"TEAE leading to discontinuation: Headache, subjects %",[1],0.9%
same,"TEAE leading to discontinuation: Headache, subjects n",[1],1
same,"TEAE leading to discontinuation: Hepatobiliary disorders, subjects n",[1],0
same,"TEAE leading to discontinuation: Hypertransaminasaemia, subjects n",[1],0
same,"TEAE leading to discontinuation: Hypoaesthesia, subjects %",[1],0.9%
same,"TEAE leading to discontinuation: Hypoaesthesia, subjects n",[1],1
same,"TEAE leading to discontinuation: Investigations, subjects %",[1],0.9%
same,"TEAE leading to discontinuation: Investigations, subjects n",[1],1
same,"TEAE leading to discontinuation: Nervous system disorders, subjects %",[1],2.7%
same,"TEAE leading to discontinuation: Nervous system disorders, subjects n",[1],3
same,"TEAE leading to discontinuation: Pharyngeal hypoaesthesia, subjects %",[1],0.9%
same,"TEAE leading to discontinuation: Pharyngeal hypoaesthesia, subjects n",[1],1
same,"TEAE leading to discontinuation: Psychiatric disorders, subjects %",[1],2.7%
same,"TEAE leading to discontinuation: Psychiatric disorders, subjects n",[1],3
same,"TEAE leading to discontinuation: Respiratory, thoracic and mediastinal disorders, subjects %",[1],0.9%
same,"TEAE leading to discontinuation: Respiratory, thoracic and mediastinal disorders, subjects n",[1],1
same,"TEAE leading to discontinuation: Sedation, subjects %",[1],0.9%
same,"TEAE leading to discontinuation: Sedation, subjects n",[1],1
same,"TEAE leading to discontinuation: Somnolence, subjects %",[1],0.9%
same,"TEAE leading to discontinuation: Somnolence, subjects n",[1],1
same,"TEAE leading to discontinuation: Suicidal ideation, subjects n",[1],0
same,"TEAE somnolence, subjects %",[1],(18.6%)
same,"Serious TEAE Depression suicidal, subjects n",[2],1
same,"Serious TEAE Psychiatric disorders, subjects %",[2],< 5%
same,"Subjects with severe TEAEs, %",[2],8.8%
same,"Serious TEAE Depression suicidal, subjects n",[3],2
same,"Serious TEAE Psychiatric disorders, subjects %",[3],(2.7%)
same,"Subjects with 1 or more TEAEs, %",[3],(88.5%)
same,"Subjects with serious TEAEs, %",[3],(3.5%)
same,"Subjects with severe TEAEs, %",[3],(8.8%)
same,"TEAE Dissociation, subjects %",[3],(29.2%)
same,"TEAE Dizziness, subjects %",[3],(35.4%)
same,"TEAE Nausea, subjects %",[3],(20.4%)
same,"Subjects with TEAEs leading to discontinuation of study agent, %","Esk 84 mg + SOC, double-blind phase, safety set",4.4%
same,"AE Anxiety, subjects %",[4],(3.0%)
same,"AE Anxiety, subjects n",[4],3
same,"AE Depression, subjects %",[4],(8.9%)
same,"AE Depression, subjects n",[4],9
same,"AE Headache, subjects %",[4],(5.9%)
same,"AE Headache, subjects n",[4],6
same,"AE Nervous system disorders, subjects %",[4],(11.9%)
same,"AE Nervous system disorders, subjects n",[4],12
same,"AE Psychiatric disorders, subjects %",[4],(28.7%)
same,"AE Psychiatric disorders, subjects n",[4],29
same,"AE Suicidal ideation, subjects %",[4],(5.0%)
same,"AE Suicidal ideation, subjects n",[4],5
same,"SAE Completed suicide, subjects %",[4],(1.0%)
same,"SAE Completed suicide, subjects n",[4],1
same,"SAE Depression suicidal, subjects %",[4],(5.0%)
same,"SAE Depression suicidal, subjects n",[4],5
same,"SAE Depression, subjects %",[4],(1.0%)
same,"SAE Depression, subjects n",[4],1
same,"SAE Depressive symptom, subjects %",[4],(1.0%)
same,"SAE Depressive symptom, subjects n",[4],1
same,"SAE Major depression, subjects %",[4],(1.0%)
same,"SAE Major depression, subjects n",[4],1
same,"SAE Musculoskeletal and connective tissue disorders, subjects n",[4],0
same,"SAE Psychiatric disorders, subjects %",[4],(12.9%)
same,"SAE Psychiatric disorders, subjects n",[4],13
same,"SAE Rhabdomyolysis, subjects n",[4],0
same,"SAE Suicidal ideation, subjects %",[4],(2.0%)
same,"SAE Suicidal ideation, subjects n",[4],2
same,"SAE Suicide attempt, subjects %",[4],(3.0%)
same,"SAE Suicide attempt, subjects n",[4],3
same,"Subjects with 1 or more AEs, %",[4],(48.5%)
same,"Subjects with AEs leading to death, %",[4],(1.0%)
same,"Subjects with serious AEs, %",[4],12.9%
same,"Subjects with severe AEs, %",[4],(5.9%)
same,"Subjects with serious AEs, %","Esk 84 mg + SOC, follow-up phase, listed as Esk",(12.9%)
same,Overall safety and tolerability (in words),intranasal ESK+SOC,safe and tolerated
